Reference: ChEMBL document CHEMBL1201862, “PubChem BioAssay data set” (2004)
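Growth conditions: 96-well plates. Treatment: test compound, 48 hours, 5 concentrations. Analysis: linear interpolation between bracketing concentrations; unreached endpoints set to highest concentration. GI50: concentration for 50% inhibition of growth.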 Active and inactive are the calls of the source. Rule as the data show it: active = GI50 up to about 1.1 µM and inactive = higher.

How the values were obtained:
Test in all cases: inhibition of tumour cell growth, NCI panel, 48 h
[1] = tested on: XF498
[2] = tested on: HOP-18
[3] = tested on: SNB-78
[4] = tested on: DMS-114
[5] = tested on: M19-MEL
[6] = tested on: DMS-273
[7] = tested on: DLD-1
[8] = tested on: KM-20L2
[9] = tested on: RXF 631

Measured: GI50

Nc1nc(CCC(=O)Nc2cccc(C(F)(F)F)c2)cc(-c2cccc3ccccc23)n1
inactive: [1] > 100 µM | [2] > 100 µM | [3] > 100 µM | [4] > 100 µM | [5] > 100 µM | [6] > 100 µM | [7] > 100 µM | [8] > 100 µM | [9] > 100 µM

C=C1CC2OC2(C(=O)O[C@H]2CCC3[C@@H]4CCC5=CC(=O)CC[C@]5(C)C4CC[C@@]32C)C1=O (stereo partly specified)
inactive: [1] 5.19 µM | [2] 5.83 µM | [3] 8.26 µM | [4] 5.2 µM | [5] 7.57 µM | [6] 4.45 µM | [7] 2.64 µM | [8] 7.57 µM

CC12CC(Sc3ccccc3N1)c1ccccc1O2 (stereo unspecified)
inactive: [1] 16.3 µM | [2] 14.1 µM | [3] 16.5 µM | [4] 15.6 µM | [5] 16.7 µM | [6] 16.3 µM | [7] 15.2 µM | [8] 18.4 µM | [9] 15.1 µM

COc1cc(C2C(Cl)C(=O)N2NC(=O)c2ccc(N)cc2)cc(Br)c1O (stereo unspecified)
inactive: [1] 17 µM | [3] 17.5 µM | [4] 6.35 µM | [5] 17.9 µM | [6] 18 µM | [7] 19 µM | [8] 17.7 µM

Cc1cn(C2CC(O)C(CO)O2)c(=O)n2nnnc12 (stereo unspecified)
inactive: [2] > 100 µM | [3] > 100 µM | [4] > 100 µM | [5] > 100 µM | [6] > 100 µM | [7] > 100 µM | [9] > 100 µM

CC(=O)O[C@H]1CC[C@@]2(C)C(CC[C@]3(C)C2CC[C@]2(C)Oc4c(C)cc(O)cc4C[C@@H]23)C1(C)C (stereo partly specified)
inactive: [2] 13.5 µM | [3] 7.52 µM | [4] 7.1 µM | [5] 11.9 µM | [6] 3.65 µM | [7] 10.4 µM | [8] 5.5 µM | [9] 5.16 µM

O=C1Nc2ccccc2C12CCCC2
inactive: [1] > 100 µM | [2] > 100 µM | [3] > 100 µM | [4] > 100 µM | [5] > 100 µM | [6] > 100 µM | [7] > 100 µM | [8] > 100 µM

COc1c(C)c2c(c(C)c1Cl)Oc1c(C=O)c(O)c(Cl)c(C)c1C(=O)O2
inactive: [1] 2.66 µM | [3] 18.2 µM | [4] 23.3 µM | [5] 31.3 µM | [6] 22.4 µM | [7] 27.7 µM | [8] 30.5 µM

CC(C)(C)N1CC2(CCCCC2)C1=O
inactive: [2] > 100 µM | [3] > 100 µM | [4] > 100 µM | [5] > 100 µM | [6] > 100 µM | [7] > 100 µM | [8] > 100 µM

O=C(O)COc1ccc2c3c1C(=O)CCC3CO2 (stereo unspecified)
inactive: [1] > 100 µM | [2] > 100 µM | [3] > 100 µM | [4] > 100 µM | [5] > 100 µM | [6] > 100 µM | [7] > 100 µM | [8] > 100 µM

CCOC(=O)C1S/C(=N\c2ccc(OC)c(OC)c2)N=C1C (stereo unspecified)
inactive: [1] 29.2 µM | [2] > 100 µM | [3] 48.5 µM | [4] 28.5 µM | [6] 38.4 µM | [7] 31.4 µM | [8] 27 µM | [9] 47.6 µM

CC(=O)OC1CCn2nnc(COC(=O)NC(C)C)c21 (stereo unspecified)
inactive: [1] > 100 µM | [2] > 100 µM | [3] > 100 µM | [4] > 100 µM | [7] > 100 µM | [8] > 100 µM | [9] > 100 µM

CC[P+](C)(C)CC
inactive: [2] > 100 µM | [3] > 100 µM | [4] > 100 µM | [5] > 100 µM | [6] > 100 µM | [7] > 100 µM | [8] > 100 µM | [9] > 100 µM

CCOC(=O)C(=O)Nc1ccccc1C(F)(F)F
active: [2] 0.9 µM
inactive: [1] > 100 µM | [3] > 100 µM | [6] > 100 µM | [7] > 100 µM | [8] > 100 µM

CC1=C(C(=O)Nc2ccccc2C)C(/C=C/c2ccccc2)C(C(=O)Nc2ccccc2C)=C(C)N1
inactive: [1] > 100 µM | [2] > 100 µM | [3] > 100 µM | [5] > 100 µM | [6] > 100 µM | [7] > 100 µM | [8] > 100 µM | [9] > 100 µM

CC(C)=C1CCC(CN2CCCC2)C1=O (stereo unspecified)
inactive: [1] 19.1 µM | [2] 17.5 µM | [3] > 100 µM | [4] 20.4 µM | [5] 20.6 µM | [6] 39.4 µM | [7] 17.3 µM | [8] 89.7 µM | [9] > 100 µM

C=C1C(=O)O[C@H](c2ccoc2)C[C@@H]1[C@@]1(C)CCCC2(C)C(=O)OCC21 (stereo partly specified)
inactive: [1] > 100 µM | [3] > 100 µM | [4] > 100 µM | [5] > 100 µM | [6] > 100 µM | [8] > 100 µM

C[C@H](NC(=O)n1c2ccccc2c2ccccc21)C(=O)O
inactive: [2] > 100 µM | [4] > 100 µM | [5] > 100 µM | [6] > 100 µM | [7] > 100 µM | [8] > 100 µM | [9] > 100 µM

CN(C)CCC(=O)N1CCc2c([nH]c3ccccc23)C1c1cccnc1 (stereo unspecified)
inactive: [1] > 100 µM | [2] > 100 µM | [3] > 100 µM | [4] > 100 µM | [5] > 100 µM | [6] > 100 µM | [7] > 100 µM | [8] > 100 µM | [9] > 100 µM

CN1CCN2c3ccccc3CC(C#N)(C#N)C2C1 (stereo unspecified)
inactive: [2] > 100 µM | [3] > 100 µM | [4] > 100 µM | [5] > 100 µM | [6] > 100 µM | [7] > 100 µM | [8] > 100 µM | [9] > 100 µM

Cc1c(Cl)cccc1NC(=O)c1cccc([N+](=O)[O-])c1O
inactive: [1] 16.3 µM | [2] 2.7 µM | [3] 34.1 µM | [4] 11.5 µM | [5] 13.8 µM | [6] 12.4 µM | [7] 21.4 µM | [8] 13.1 µM | [9] 13.8 µM

C[C@H](C(=O)C12CC3CC(CC(C3)C1)C2)[C@H](O)c1ccccc1
inactive: [1] 26 µM | [2] 98.9 µM | [3] 31.6 µM | [7] 45.5 µM | [8] 20.8 µM | [9] 31.2 µM

Cn1c2c(c3ccccc31)CCN(CCCCN1CCc3c(n(C)c4ccccc34)C1=O)C2
inactive: [1] > 100 µM | [2] > 100 µM | [3] > 100 µM | [4] 73.1 µM | [5] > 100 µM | [6] > 100 µM | [7] > 100 µM | [8] > 100 µM | [9] > 100 µM

O=C(/C=C\c1ccc(Cl)c(Cl)c1)c1ccc(Cl)cc1Cl
inactive: [2] > 10 µM | [3] > 10 µM | [4] > 10 µM | [5] 18.7 µM | [6] 10.4 µM | [7] 5.41 µM | [8] 2.69 µM | [9] 35.9 µM
